Tests used:
Mcl-1 = Mcl-1 (Homo sapiens, UniProt Q07820); test: Inhibition of Mcl-1 (disruption of Mcl-1/Bim interaction); format: binding; details: for inhibition at 50 µM / % Inhibition (50 μM) Mcl-1: compound at 50 μM; for inhibition at 25 µM / % Inhibition (25 μM) Mcl-1: compound at 25 μM
Description: (§1) In a subsequent study, a structurally diverse library of forty five thio acids and thirty eight sulfonyl azides (identified above) was screened in parallel against Mcl-1 and Bcl-XL using the above mentioned approach. Several potential hit combinations were identified (Table 3). All of these kinetic TGS hit compounds were synthesized (identified above and in Table 3). All the reactions were performed at 20-30 mg scale. The 9-fluorenylmethyl thioester was placed in a 2.0 mL vial and 3.5% DBU/dry DMF solution was added (per 1 μmol of thioester, 4.7 μL, of 3.5% DBU/dry DMF solution was added) and the reaction was stirred for one minute. Then the sulfonylazide (1 eq to thioester) was added to the reaction mixture and immediately bubbling was observed. After the reaction was completed (approximately one minute, monitored by LC-MS) water (200 μL) was added and the pH was adjusted to 7.0 using 1M HCl solution. The reaction mixture was extracted with DCM until there is no product in the aqueous layer (checked by TLC or LC-MS). The product was purified by flash chromatography. Testing of these acylsulfonamides has shown that the hit compounds disrupt the Bcl-XL/Bim or Mcl-1/Bim interaction (Table 3).

Bcl-XL = Bcl-XL (Homo sapiens, UniProt Q07817); test: Inhibition of Bcl-XL (disruption of Bcl-XL/Bim interaction); format: binding; details: for inhibition at 50 µM / % Inhibition (50 μM) Bcl-XL: compound at 50 μM; for inhibition at 25 µM / % Inhibition (25 μM) Bcl-XL: compound at 25 μM
Chain of Bcl-XL (Q07817 whole entry, species assumed): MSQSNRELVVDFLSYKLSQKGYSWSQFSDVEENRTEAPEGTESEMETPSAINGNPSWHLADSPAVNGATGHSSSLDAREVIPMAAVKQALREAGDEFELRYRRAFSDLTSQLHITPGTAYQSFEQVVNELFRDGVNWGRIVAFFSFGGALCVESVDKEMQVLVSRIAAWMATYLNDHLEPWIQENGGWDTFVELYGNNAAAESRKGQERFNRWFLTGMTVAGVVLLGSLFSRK
Description: as §1

Chain of Mcl-1 (Q07820 whole entry, species assumed): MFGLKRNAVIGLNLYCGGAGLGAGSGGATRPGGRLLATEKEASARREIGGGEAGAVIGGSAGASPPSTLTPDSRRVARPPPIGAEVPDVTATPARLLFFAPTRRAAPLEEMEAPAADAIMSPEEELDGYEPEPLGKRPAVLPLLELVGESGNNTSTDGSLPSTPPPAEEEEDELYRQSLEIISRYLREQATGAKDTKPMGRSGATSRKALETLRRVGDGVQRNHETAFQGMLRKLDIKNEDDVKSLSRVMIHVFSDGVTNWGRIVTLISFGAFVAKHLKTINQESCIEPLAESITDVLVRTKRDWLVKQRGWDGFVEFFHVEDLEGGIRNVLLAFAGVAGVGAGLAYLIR

SMILES | IC50 (Mcl-1) | inhibition at 50 µM (Mcl-1) | inhibition at 50 µM (Bcl-XL) | inhibition at 25 µM (Mcl-1) | inhibition at 25 µM (Bcl-XL) | % Inhibition (25 μM) Mcl-1 (Mcl-1) | % Inhibition (50 μM) Mcl-1 (Mcl-1) | % Inhibition (25 μM) Bcl-XL (Bcl-XL) | % Inhibition (50 μM) Bcl-XL (Bcl-XL) | IC50 (Bcl-XL)
COc1cccc(CN(CCSc2ccccc2)Cc2ccc(S(=O)(=O)NC(=O)c3sc(-c4ccccc4)nc3C)cc2)c1 [SZ17TA3] | 8.6 µM | 100% | 39.6% | – | – | – | – | – | – | –
COc1cccc(CN(CCSc2ccccc2)Cc2ccc(S(=O)(=O)NC(=O)c3cccc4ccccc34)cc2)c1 [SZ17TA7] | 20.1 µM | – | 66.5% | – | – | – | – | – | – | –
COc1cccc(CN(CCSc2ccccc2)Cc2ccc(S(=O)(=O)NC(=O)c3ccc(OC(F)(F)F)cc3)cc2)c1 [SZ17TA8] | 8.4 µM | 100% | < 2% | 60.5% | 4.1% | – | – | – | – | –
COc1cccc(CN(CCSc2ccccc2)Cc2ccc(S(=O)(=O)NC(=O)c3ccc(-c4ccc(F)cc4)cc3)cc2)c1 [SZ17TA14] | – | – | – | – | – | 73.9% | 46.7% | 16.6% | 2.8% | –
COc1cccc(CN(CCSc2ccccc2)Cc2ccc(S(=O)(=O)NC(=O)Cn3c4ccccc4c4ccccc43)cc2)c1 [SZ17TA15] | – | – | 12% | 53.3% | 3% | – | – | – | – | –
COc1cccc(CN(CCSc2ccccc2)Cc2ccc(S(=O)(=O)NC(=O)c3ccc(CCc4ccccn4)cc3)cc2)c1 [SZ17TA17] | – | – | – | – | – | 73.9% | 89.0% | 68.1% | 58.4% | –
COc1cccc(CN(CCSc2ccccc2)Cc2ccc(S(=O)(=O)NC(=O)CCCN3C(=O)C(c4ccc(F)cc4F)=C(c4ccc(F)cc4F)C3=O)cc2)c1 [SZ17TA20] | – | – | – | – | – | 7.2% | 12.4% | <2.0% | <2.0% | –
COc1cccc(CN(CCSc2ccccc2)Cc2ccc(S(=O)(=O)NC(=O)c3ccc(-c4ccccn4)cc3)cc2)c1 [SZ17TA25] | – | – | – | – | – | 64.9% | 93.6% | 38.6% | 54.5% | –
COc1cccc(CN(CCSc2ccccc2)Cc2ccc(S(=O)(=O)NC(=O)c3ccc4c(ccn4Cc4ccc(C(F)(F)F)cc4C(F)(F)F)c3)cc2)c1 [SZ17TA30] | – | – | – | – | – | 18.0% | 15.8% | <2.0% | <2.0% | –
COc1cccc(CN(CCSc2ccccc2)Cc2ccc(S(=O)(=O)NC(=O)c3ccc4c(c3)c(C(=O)C3CCCCC3)cn4C)cc2)c1 [SZ17TA40] | – | – | – | – | – | 25.8% | 58.5% | 7.5% | <2.0% | –
COc1cccc(CN(CCSc2ccccc2)Cc2ccc(S(=O)(=O)NC(=O)c3ccc4c(c3)c(C(=O)c3cccs3)cn4C)cc2)c1 [SZ17TA45] | – | – | – | – | – | 62.7% | 34.5% | 6.8% | <2.0% | –
COc1cc2c(cc1OC)C(c1ccccc1)N(CCS(=O)(=O)NC(=O)c1ccc(CN3C(=O)C(c4ccc(F)cc4F)=C(c4ccc(F)cc4F)C3=O)cc1)CC2 (centres unmarked) [SZ27TA42] | – | – | – | – | – | 18.3% | 52.3% | 14.1% | 5.2% | –
O=C(NS(=O)(=O)CCN(CCSc1ccccc1)Cc1ccc2c(c1)OCO2)c1ccc2c(ccn2Cc2ccc(C(F)(F)F)cc2C(F)(F)F)c1 [SZ28TA30] | – | – | – | – | – | 42.8% | 60.5% | 9.7% | <2.0% | –
O=C(NS(=O)(=O)CCN(CCSc1ccccc1)Cc1ccc2c(c1)OCO2)c1ccc(C(c2c[nH]c3ccccc23)c2c[nH]c3ccccc23)cc1 [SZ28TA31] | – | – | – | – | – | 22.6% | 25.8% | 8.1% | <2.0% | –
Cn1cc(C(=O)c2cccs2)c2cc(C(=O)NS(=O)(=O)CCN(CCSc3ccccc3)Cc3ccc4c(c3)OCO4)ccc21 [SZ28TA45] | – | – | – | – | – | 46.8% | 54.0% | 25.7% | 34.6% | –
Cc1nc(-c2ccccc2)sc1C(=O)NS(=O)(=O)c1ccc(CN(CCSc2ccccc2)Cc2ccc3c(c2)OCO3)cc1 [SZ31TA3] | 9.4 µM | 100% | 51.3% | 69.9% | 29.6% | – | – | – | – | –
O=C(NS(=O)(=O)c1ccc(CN(CCSc2ccccc2)Cc2ccc3c(c2)OCO3)cc1)c1ccc(OC(F)(F)F)cc1 [SZ31TA8] | 5.9 µM | > 99% | – | 61.2% | 9.5% | – | – | – | – | –
O=C(NS(=O)(=O)c1ccc(CN(CCSc2ccccc2)Cc2ccc3c(c2)OCO3)cc1)c1ccc(-c2ccc(F)cc2)cc1 [SZ31TA14] | – | – | – | – | – | 56.2% | 59.5% | 17.3% | 13.3% | –
O=C(Cn1c2ccccc2c2ccccc21)NS(=O)(=O)c1ccc(CN(CCSc2ccccc2)Cc2ccc3c(c2)OCO3)cc1 [SZ31TA15] | 14 µM | – | 21.4% | 82% | 18.5% | – | – | – | – | –
O=C(NS(=O)(=O)c1ccc(CN(CCSc2ccccc2)Cc2ccc3c(c2)OCO3)cc1)c1ccc(CCc2ccccn2)cc1 [SZ31TA17] | 16.8 µM | 88.6% | 77.7% | 84.3% | 40.2% | – | – | – | – | 31.3 µM
COc1ccc(Cc2ccc(C(=O)NS(=O)(=O)c3ccc(CN(CCSc4ccccc4)Cc4ccc5c(c4)OCO5)cc3)cc2)c(OC)c1OC [SZ31TA24] | 20 µM | – | 15.5% | 59.9% | 8.2% | – | – | – | – | –
O=C(NS(=O)(=O)c1ccc(CN(CCSc2ccccc2)Cc2ccc3c(c2)OCO3)cc1)c1ccc2c(ccn2Cc2ccc(C(F)(F)F)cc2C(F)(F)F)c1 [SZ31TA30] | – | – | – | – | – | 32.4% | 30.6% | <2.0% | <2.0% | –
O=C(NS(=O)(=O)c1ccc(CN(CCSc2ccccc2)Cc2ccc3c(c2)OCO3)cc1)c1ccc(C(c2c[nH]c3ccccc23)c2c[nH]c3ccccc23)cc1 [SZ31TA31] | – | – | – | – | – | <2.0% | <2.0% | <2.0% | <2.0% | –
Cn1cc(C(=O)C2CCCCC2)c2cc(C(=O)NS(=O)(=O)c3ccc(CN(CCSc4ccccc4)Cc4ccc5c(c4)OCO5)cc3)ccc21 [SZ31TA40] | – | – | – | – | – | <2.0% | <2.0% | <2.0% | <2.0% | –
O=C(NS(=O)(=O)c1ccc(CN(CCSc2ccccc2)Cc2ccc3c(c2)OCO3)cc1)c1cccc(NCCc2ccccc2)c1 [SZ31TA44] | – | – | – | – | – | 14.9% | 36.5% | <2.0% | <2.0% | –
Cn1cc(C(=O)c2cccs2)c2cc(C(=O)NS(=O)(=O)c3ccc(CN(CCSc4ccccc4)Cc4ccc5c(c4)OCO5)cc3)ccc21 [SZ31TA45] | – | – | – | – | – | 53.8% | 40.2% | 7.2% | <2.0% | –
Cc1noc(C)c1-c1ccc(S(=O)(=O)NC(=O)c2ccc(CN3C(=O)C(c4ccc(F)cc4F)=C(c4ccc(F)cc4F)C3=O)cc2)cc1 [SZ32TA42] | 19.1 µM | – | 59.4% | 72.2% | 26% | – | – | – | – | –
CN(C)C(=O)c1cccc(-c2ccc(S(=O)(=O)NC(=O)c3ccc(CN4C(=O)C(c5ccc(F)cc5F)=C(c5ccc(F)cc5F)C4=O)cc3)cc2)c1 [SZ34TA42] | 29.3 µM | > 99% | 58% | 49% | 19.1% | – | – | – | – | –
